How the values were obtained:
[1] = system: salmonella TA110 and TA98 strains; settings: even under normal metabolic activity of the liver (rats); cited from earlier work
HepG2 cells = assay: 44 k whole human genome oligo microarray gene expression, cells treated with chrysene at IC20 for 48 hours (Cy5) vs untreated control (Cy3); assay type: cell-based
Experimental: HepG2 cells were distributed on a 100 mm dish at the concentration of 6×10^6 cell/ml, to which chrysene was treated for 48 hours at the concentration that was determined in Example <1-2>. Total RNA was extracted from the cells using trizol reagent (Invitrogen life technologies, USA) according to the manufacturer's instruction and the extracted RNA was purified by using RNeasy mini kit (Qiagen, USA). The genomic DNA was eliminated during the purification of RNA using RNase-free DNase set (Qiagen, USA). The total RNA was quantified by spectrophotometer and purity was measured by Agilent 2100 Bioanalyzer (Agilent Technologies, USA) and agarose gel-electrophoration.
For oligo-microarray analysis, cDNA was synthesized using the total RNA extracted from the experimental group treated with chrysene obtained in Example <2-1>. 30 μg of the total RNA and 2 μg (1 μg/μl) of oligo (dT) primer were mixed, followed by reaction for 10 minutes at 65° C. Then, the reaction mixture was put in ice, followed by annealing. Reagents were mixed as shown in Table 1 for reverse transcription of the RNA.
The total RNA extracted from the control HepG2 cell line was labeled with Cy3-dUTP (green), while the RNA extracted from the experimental HepG2 cell line treated with chrysene was labeled with Cy5-dUTP (red). At this time, the two samples were mixed and purified by Microcon YM-30 column (Millipore, USA).
Hybridization and washing were performed according to the instruction of GeneoCheck Co., Ltd. Hybridization was performed in a 62° C. oven for 12 hours. At this time, 44 k whole human genome oligo microarray (Agilent, USA) was used as a DNA microarray chip. After washing (with 2×SSC/0.1% SDS for 2 minutes, with 1×SSC for 3 minutes, with 0.2×SSC for 2 minutes), the slide was centrifuged at 800 rpm for 3 minutes and dried.
Scanning of the hybridized images on the slide was performed by using Genepix 4000B (Axon Instruments, USA). Fluorescence images of the chip washed to eliminate non-binding genes were obtained by laser fluorescence scanner. At this time, green fluorescent images indicated the activity of the gene expressed in the control, whereas red fluorescent images indicated the activity of the gene expressed specifically in the experimental group. […] The scanned images were analyzed by GenePix 4.1 software (Axon Instruments, USA) to calculate the gene expression rate. Based on the obtained data, marker genes for chrysene were selected (see FIG. 2).

[2] = animal tests; cited from earlier work

c1ccc2c(c1)ccc1c3ccccc3ccc21 [chrysene]
mutagenicity in Ames tests [1]: showed mutagenicity
Ratio of intermediate value (HepG2 cells; ACHE (NM_015831)): 6.223
Ratio of intermediate value (HepG2 cells; ADA (NM_000022)): 5.213
Ratio of intermediate value (HepG2 cells; ADM (NM_001124)): 2.186
Ratio of intermediate value (HepG2 cells; ADORA2B (AK172851)): 2.249
Ratio of intermediate value (HepG2 cells; APOL2 (AF324224)): 2.105
Ratio of intermediate value (HepG2 cells; APOL3 (NM_145641)): 3.196
Ratio of intermediate value (HepG2 cells; AXL (NM_021913)): 3.268
Ratio of intermediate value (HepG2 cells; B2M (NM_004048)): 2.006
Ratio of intermediate value (HepG2 cells; BATF (BQ053419)): 2.221
Ratio of intermediate value (HepG2 cells; BTG3 (BC011957)): 2.74
Ratio of intermediate value (HepG2 cells; C1R (NM_001733)): 2.893
Ratio of intermediate value (HepG2 cells; C1S (NM_001734)): 3.018
Ratio of intermediate value (HepG2 cells; C4A (NM_001002029)): 2.002
Ratio of intermediate value (HepG2 cells; C20orf139 (H18681)): 4.383
Ratio of intermediate value (HepG2 cells; CCL3 (CR591007)): 3.347
Ratio of intermediate value (HepG2 cells; CCL3L1 (BF662985)): 2.839
Ratio of intermediate value (HepG2 cells; CCL14 (NM_004167)): 5.103
Ratio of intermediate value (HepG2 cells; CCL20 (BC020698)): 2.199
Ratio of intermediate value (HepG2 cells; CCL23 (NM_005064)): 2.761
Ratio of intermediate value (HepG2 cells; CCND3 (AK096276)): 2.292
Ratio of intermediate value (HepG2 cells; CD3D (NM_000732)): 54.94
Ratio of intermediate value (HepG2 cells; CD9 (NM_001769)): 4.153
Ratio of intermediate value (HepG2 cells; CD58 (NM_001779)): 2.794
Ratio of intermediate value (HepG2 cells; CD79B (AK223210)): 15.33
Ratio of intermediate value (HepG2 cells; CDKN2B (NM_078487)): 2.559
Ratio of intermediate value (HepG2 cells; CSF1 (BC021117)): 4.788
Ratio of intermediate value (HepG2 cells; CXCL12 (AK090482)): 2.842
Ratio of intermediate value (HepG2 cells; DDX58 (NM_014314)): 2.333
Ratio of intermediate value (HepG2 cells; DKFZp451C2311 (AL832451)): 2.639
Ratio of intermediate value (HepG2 cells; DNAJA2 (AF116720)): 10.94
Ratio of intermediate value (HepG2 cells; DNAJB2 (BC040494)): 2.053
Ratio of intermediate value (HepG2 cells; DNAJB4 (AB209922)): 2.872
Ratio of intermediate value (HepG2 cells; DUSP1 (AK127679)): 2.383
Ratio of intermediate value (HepG2 cells; DUSP13 (NM_001007271)): 7.031
Ratio of intermediate value (HepG2 cells; E2F7 (NM_203394)): 3.647
Ratio of intermediate value (HepG2 cells; EBI3 (NM_005755)): 5.607
Ratio of intermediate value (HepG2 cells; ELF4 (NM_001421)): 4.316
Ratio of intermediate value (HepG2 cells; F2RL1 (NM_005242)): 2.258
Ratio of intermediate value (HepG2 cells; F8 (NM_000132)): 2.415
Ratio of intermediate value (HepG2 cells; FAM14A (NM_032036)): 2.706
Ratio of intermediate value (HepG2 cells; FOS (BX647104)): 2.287
Ratio of intermediate value (HepG2 cells; FOSL1 (NM_005438)): 5.643
Ratio of intermediate value (HepG2 cells; GPX1 (NM_201397)): 2.85
Ratio of intermediate value (HepG2 cells; GPX2 (BE512691)): 2.014
Ratio of intermediate value (HepG2 cells; HLA-DOA (NM_002119)): 4.209
Ratio of intermediate value (HepG2 cells; HRAS (NM_005343)): 2.3
Ratio of intermediate value (HepG2 cells; HSPA4L (NM_014278)): 4.71
Ratio of intermediate value (HepG2 cells; HSPA8 (NM_006597)): 2.313
Ratio of intermediate value (HepG2 cells; HSPCA (AJ890082)): 2.544
Ratio of intermediate value (HepG2 cells; ICOSLG (CB055213)): 3.644
Ratio of intermediate value (HepG2 cells; IL4R (NM_000418)): 2.254
Ratio of intermediate value (HepG2 cells; IL11 (NM_000641)): 4.521
Ratio of intermediate value (HepG2 cells; ITCH (NM_031483)): 2.301
Ratio of intermediate value (HepG2 cells; KLF6 (NM_001008490)): 2.3
Ratio of intermediate value (HepG2 cells; KLRC3 (NM_002260)): 2.942
Ratio of intermediate value (HepG2 cells; LIF (NM_002309)): 8.088
Ratio of intermediate value (HepG2 cells; LY96 (BM918324)): 5.439
Ratio of intermediate value (HepG2 cells; MAPK11 (BC027933)): 2.256
Ratio of intermediate value (HepG2 cells; MAPK13 (AB209586)): 2.326
Ratio of intermediate value (HepG2 cells; MBL2 (NM_000242)): 2.755
Ratio of intermediate value (HepG2 cells; MGC3207 (AL834276)): 2.364
Ratio of intermediate value (HepG2 cells; MR1 (AF031469)): 7.059
Ratio of intermediate value (HepG2 cells; NALP6 (AY154461)): 2.392
Ratio of intermediate value (HepG2 cells; NFKBIA (NM_020529)): 2.242
Ratio of intermediate value (HepG2 cells; NINJ1 (NM_004148)): 2.107
Ratio of intermediate value (HepG2 cells; NK4 (BF569086)): 3.138
Ratio of intermediate value (HepG2 cells; NR3C1 (U25029)): 2.274
Ratio of intermediate value (HepG2 cells; OAS1 (NM_016816)): 3.711
Ratio of intermediate value (HepG2 cells; PAI, PAI1, PAI-1, PLANH1 (BX649164)): 29.05
Ratio of intermediate value (HepG2 cells; PARD6B (BC060847)): 2.507
Ratio of intermediate value (HepG2 cells; PARD6G (BC060797)): 3.502
Ratio of intermediate value (HepG2 cells; PGF (NM_002632)): 2.436
Ratio of intermediate value (HepG2 cells; PPM1D (NM_003620)): 3.647
Ratio of intermediate value (HepG2 cells; PPP1R9B (BC008564)): 3.169
Ratio of intermediate value (HepG2 cells; PRNP (NM_000311)): 2.313
Ratio of intermediate value (HepG2 cells; PROCR (NM_006404)): 24.53
Ratio of intermediate value (HepG2 cells; PTGES (AK127663)): 3.184
Ratio of intermediate value (HepG2 cells; PTP4A1 (BC040303)): 3.183
Ratio of intermediate value (HepG2 cells; RAE1 (AK097024)): 2.921
Ratio of intermediate value (HepG2 cells; RPS6KA1 (BC014966)): 2.11
Ratio of intermediate value (HepG2 cells; S100A6 (BM904612)): 5.938
Ratio of intermediate value (HepG2 cells; SAA4 (BG564326)): 4.076
Ratio of intermediate value (HepG2 cells; SASH1 (NM_015278)): 2.368
Ratio of intermediate value (HepG2 cells; SEMA7A (AF069493)): 2.531
Ratio of intermediate value (HepG2 cells; SERTAD1 (AK074652)): 4.835
Ratio of intermediate value (HepG2 cells; SFN (BC023552)): 2.525
Ratio of intermediate value (HepG2 cells; SGK2 (BC006523)): 4.65
Ratio of intermediate value (HepG2 cells; STAT1 (NM_007315)): 2.268
Ratio of intermediate value (HepG2 cells; TAP1 (BX648013)): 4.08
Ratio of intermediate value (HepG2 cells; TAPBP (NM_172208)): 7.02
Ratio of intermediate value (HepG2 cells; TGFA (NM_003236)): 2.487
Ratio of intermediate value (HepG2 cells; TLR3 (BC068487)): 2.541
Ratio of intermediate value (HepG2 cells; TMPRSS6 (NM_153609)): 2.118
Ratio of intermediate value (HepG2 cells; TP53I11 (BC045666)): 6.008
Ratio of intermediate value (HepG2 cells; TREM2 (NM_018965)): 43.67
Ratio of intermediate value (HepG2 cells; TRIM22 (BC035582)): 13.79
Ratio of intermediate value (HepG2 cells; VWF (NM_000552)): 2.476
Ratio of intermediate value (HepG2 cells; XLKD1 (NM_006691)): 10.06
Ratio of intermediate value (HepG2 cells; ZAP70 (AL832287)): 3.83
Ratio of intermediate value (HepG2 cells; ZCSL2 (AK092040)): 2.303
genes identified to be down-regulated (2.0 fold less) (HepG2 cells; out of 44,000 genes): 0.82%
genes identified to be up-regulated (2.0 fold higher) (HepG2 cells; out of 44,000 genes): 0.73%
number of genes identified to be down-regulated (HepG2 cells; out of 44,000 genes): 361 genes
number of genes identified to be up-regulated (HepG2 cells; out of 44,000 genes): 323 genes
absorption rate through skin [2]: very slow
absorption via oral pathway [2]: absorbed

Source: patent publication US8080377B2, “Method for confirming the exposure on chrysene” (Korea Institute of Science and Technology, priority 2008, dated 2011)
